From patent US4593097A, “Phenazine carboxylic acid derivatives and a process for production thereof” (Kyowa Hakko Kogyo Co., Ltd., priority 1983, dated 1986)
Values after ≈ are worked out from the molar mass of the structure shown.

Experiments:
[1] = system: Bacillus subtilis No. 10707; experiment: Antibacterial activity by agar dilution method (pH 7.0), Bacillus subtilis No. 10707; format: cell-based; conditions: read-out: Minimum Inhibitory Concentration
Source text: (§1) Antibacterial activities of DC-86-Y, -M, -R and -C against various bacteria determined by agar dilution method (pH 7.0) are shown in Table 2.

[2] = system: Staphylococcus aureus ATCC 6538P; experiment: Antibacterial activity by agar dilution method (pH 7.0), Staphylococcus aureus ATCC 6538P; format: cell-based; conditions: ATCC6538P, read-out: Minimum Inhibitory Concentration
Source text: as §1

[3] = system: Sarcoma 180 ascites tumor cells; experiment: Anti-tumor activity against Sarcoma 180 in mice; format: in vivo, ddy male mice; conditions: 24 h after transplantation, measured 7 days after transplantation
Method: 5×10^6 Sarcoma 180 ascites tumor cells were transplanted to the hypoderm of the armpit cavity of ddy male mice weighing about 20 g, one group being 6 mice. 24 hours after the transplantation, 0.2 ml of a phosphate buffer saline (PBS) solution of a test compound having various concentrations was intraperitoneally administered once. The composition of PBS is 0.8 g/dl NaCl, 0.02 g/dl KCl, […] Na2 HPO4 and 0.02 g/dl KH2 PO4 (pH 7.2). For comparison, 0.2 ml of PBS containing mitomycin C was intraperitoneally administered 24 hours after the transplantation of the tumor cells. Average tumor volume (mm^3) and T/C (T: average tumor volume of mice treated with the test compound, C: average tumor volume of mice treated with 0.2 ml of PBS intraperitoneally)were measured 7 days after the transplantation and the results shown in Table 3 were obtained.

in vivo = conditions: mouse, ip
Escherichia coli ATCC 26 = experiment: Antibacterial activity by agar dilution method (pH 7.0), Escherichia coli ATCC 26; format: cell-based; conditions: ATCC26, read-out: Minimum Inhibitory Concentration
Source text: as §1

[4] = system: Salmonella typhosa ATCC 9992; experiment: Antibacterial activity by agar dilution method (pH 7.0), Salmonella typhosa ATCC 9992; format: cell-based; conditions: Salmonella enterica, pH 7, read-out: Minimum Inhibitory Concentration
Source text: as §1

[5] = system: Shigella sonnei ATCC 9290; experiment: Antibacterial activity by agar dilution method (pH 7.0), Shigella sonnei ATCC 9290; format: cell-based; conditions: ATCC9290, read-out: Minimum Inhibitory Concentration
Source text: as §1

[6] = system: Klebsiella pneumoniae ATCC 10031; experiment: Antibacterial activity by agar dilution method (pH 7.0), Klebsiella pneumoniae ATCC 10031; format: cell-based; conditions: ATCC10031, read-out: Minimum Inhibitory Concentration
Source text: as §1

Row | SMILES | MIC [1] | MIC [2] | T/C (average tumor volume, treated/control) ([3]; 12.5 mg/kg i.p. once) | T/C (average tumor volume, treated/control) ([3]; 25 mg/kg i.p. once) | T/C (average tumor volume, treated/control) ([3]; 50 mg/kg i.p. once) | LD50 (in vivo) | MIC (Escherichia coli ATCC 26) | MIC [4] | MIC [5] | MIC [6] | T/C (average tumor volume, treated/control) ([3]; 5 mg/kg i.p. once) | T/C (average tumor volume, treated/control) ([3]; 10 mg/kg i.p. once) | T/C (average tumor volume, treated/control) ([3]; 20 mg/kg i.p. once) | T/C (average tumor volume, treated/control) ([3]; 100 mg/kg i.p. once) | T/C (average tumor volume, treated/control) ([3]; 200 mg/kg i.p. once) | T/C (average tumor volume, treated/control) ([3]; 6 mg/kg i.p.)
1 | CC(OC(=O)CCl)c1cccc2nc3c(C(=O)O)cccc3nc12 (centres unmarked) [DC-86-C] | 0.01 µg/mL (≈ 0.029 µM) | 0.2 µg/mL (≈ 0.58 µM) | 0.98 | 0.72 | dead | 40 mg/kg | > 100 µg/mL | 10 µg/mL (≈ 29 µM) | 10 µg/mL (≈ 29 µM) | > 100 µg/mL |  |  |  |  |  | 
2 | CC(OC(=O)CO)c1cccc2nc3c(C(=O)O)cccc3nc12 (centres unmarked) [DC-86-M] | 0.1 µg/mL (≈ 0.306 µM) | 0.3 µg/mL (≈ 0.919 µM) |  |  |  | 20 mg/kg | 100 µg/mL (≈ 306 µM) | 10 µg/mL (≈ 30.6 µM) | 10 µg/mL (≈ 30.6 µM) | 100 µg/mL (≈ 306 µM) | 0.97 | 0.82 | 0.36 |  |  | 
3 | CC(OC(=O)COC(C)(C)C)c1cccc2nc3c(C(=O)O)cccc3nc12 (centres unmarked) [DC-86-R] | 0.7 µg/mL (≈ 1.83 µM) | 3 µg/mL (≈ 7.84 µM) |  |  | 1.06 | 250 mg/kg | > 100 µg/mL | > 100 µg/mL | > 100 µg/mL | > 100 µg/mL |  |  |  | 0.87 | 0.86 | 
4 | CC(O)c1cccc2nc3c(C(=O)O)cccc3nc12 (centres unmarked) [DC-86-Y, metal not drawn] | > 100 µg/mL | > 100 µg/mL |  |  |  | 300 mg/kg | > 100 µg/mL | > 100 µg/mL | > 100 µg/mL | > 100 µg/mL |  |  |  |  |  | 
5 | CO[C@@]12[C@H](COC(N)=O)C3=C(C(=O)C(C)=C(N)C3=O)N1C[C@@H]1N[C@@H]12 [Mitomycin C, mitomycin C, reference compound] |  |  |  |  |  |  |  |  |  |  |  |  |  |  |  | 0.28
